Values joined by “and” are separate entries in the source; they are usually repeats but may differ in a detail not shown here. Equal entries are not always repeated. Where two headings read alike, the source gives them in different places.
Legend:
[1] = system: IL-8 secretion from cystic fibrosis lung epithelial IB3-1 cells
[2] = mobile phase: methanol/water 30:70; cited from earlier work
[3] = octanol/water (20 mM TRIS-HCl, pH 7.4), cited from earlier work
[4] = eluent acetonitrile/water 45:55; cited from earlier work
[5] = system: guinea-pig heart Na^+-K^+-ATPase; conditions: cited from earlier work
[6] = system: Human castration-resistant prostate cancer PC3 cells; test: EMT protein expression in PC3 cells (Western blot); assay type: cell-based; conditions: 24 hours, vehicle 100%
[7] = system: TNFa/NFkB signaling pathway; test: Reverse Phase Protein Microarrays of TNFa/NFkB pathway phosphorylation in IB3-1 cells; assay type: cell-based, human; conditions: IC-90 concentrations
From the text: Previously published data have implicated a dysfunctional TNFa/NFkB signaling pathway as responsible for the pro-inflammatory phenotype of the CF lung (Eidelman et al, 2001a). […] IC-90 means a concentration of drug that blocks 90% of IL-8 secretion from the IB3-1 cells. […] (See FIG. 1).

[8] = system: Cystic Fibrosis IB-3 Lung Epithelial Cells; test: Secretion of proinflammatory mediators from IB-3 cells (ELISA, 24 hours); assay type: cell-based; conditions: Homo sapiens, Epithelial cell
[9] = system: clear cell renal carcinoma metastatic to the brain and spinal cord; conditions: human, in vivo
PAIII cancer cells = system: PAIII cancer cells; parameters: species or system Lobund-Wistar rats; conditions: rat, in vivo
[10] = system: rat PAIII castration resistant prostate cancer cells; test: EMT mRNA expression in cultured PAIII cells (FPKM); conditions: 6 nM Digitoxin, 24 hours
[11] = system: HeLa cervical cancer cells; conditions: human
[12] = system: rat PAIII castration-resistant prostate cancer cells; test: MicroRNA expression in cultured PAIII cells (TaqMan, DDCt); assay type: cell-based; conditions: 6 nM Digitoxin, 24 hours
[13] = system: HeLa cervical cancer cells; test: cells; conditions: Homo sapiens, 24 h, read-out: IC50 dose for cell death
[14] = system: PAIII Castration Resistant Prostate Cancer cells; parameters: species or system Lobund-Wistar rats; conditions: rat, in vivo
[15] = for 70 kg man, cited from earlier work
[16] = system: IL-6 and CINC1 (rat IL-8 equivalent); test: Serum IL-6 and CINC1 in rats bearing PAIII tumors; assay type: in vivo; conditions: digitoxin 0.03 mg/kg daily for 30 days, serum day 30
[17] = system: rat lungs infected with influenza; test: Cytokines and chemokines in lungs of influenza-infected cotton rats; assay type: in vivo; conditions: 3, 10 or 30 microgram/kg ip daily, lung harvested day 4
Procedure: Fifteen standard cotton rats were divided into five groups of three each. […] The rats in the treatment groups were pre-treated on the preceding day with either 3, 10, or 30 micro-g/kg intraperitoneally. […] Each rat was then treated on Day 1 with 100 microliters of Wuhan Strain influenza virus (titer-10^8 TC-IC 50/ml) (IC is […]) by intra-nasal administration to induce lung inflammation.
The rats were sacrificed on the last day 4 hrs after treatment.
Pieces of lung was harvested on day 4 and homogenized in PBS by glass-on-glass homogenizer in 1 gram/ml. Samples are frozen on dry ice, and then transferred to −80° C. for analysis. […] Rodents lack IL-8 and instead have GRO/KC and MIP-2. […] GM-CSF was undetectable in the tissue under any conditions.

[18] = system: collagen induced arthritis (CIA) mice; conditions: mouse, in vivo
[19] = system: human vascular endothelial cells (HUVEC); conditions: in vitro, read-out: 50% kill concentration; cited from earlier work
[20] = Homo sapiens, IB3-1, 48 h, read-out: IC50 nmol/L in cells
[21] = Homo sapiens, IB3-1, 48 h, read-out: IC50 (K50) for spontaneous IL-8 secretion

CC(=O)O[C@H]1CC[C@]2(C=O)[C@H]3CC[C@]4(C)[C@@H](C5=CC(=O)OC5)CC[C@]4(O)[C@@H]3CC[C@]2(O)C1 [acetylstrophanthdin, acetyl-strophanthidin]
IC50 ([1]; read-out: IC50 nmol/L in cells, 50% suppression of spontaneous IL-8 secretion, IB3-1 cells, 48 hours): 117 nmol/L

C[C@]12CC[C@H](O)C[C@H]1CC[C@@H]1[C@@H]2CC[C@]2(C)[C@@H](C3=CC(=O)OC3)CC[C@]12O [digitoxigenin]
IC50 [1, 20]: 74 nmol/L
RM values (lipophilicity, reversed-phase thin layer chromatography) [2]: 1.03
P (partition coefficient in octanol/water system) [3]: 270.0 ± 94.1
K retentions for reversed-phase high pressure liquid chromatography [4]: 1.81
ID50 [5]: 1.63 ± 0.06 ×10^−4 mol l^−1

C[C@H]1O[C@@H](O[C@H]2[C@@H](O)C[C@H](O[C@H]3[C@@H](O)C[C@H](O[C@H]4CC[C@@]5(C)[C@H](CC[C@@H]6[C@@H]5CC[C@]5(C)[C@@H](C7=CC(=O)OC7)CC[C@]65O)C4)O[C@@H]3C)O[C@@H]2C)C[C@H](O)[C@@H]1O [digitoxin]
E-Cadherin % Band Intensity ([6]; Digitoxin 10 nM): 0%,
SNAI1 % Band Intensity ([6]; Digitoxin 10 nM): 0%,
Vimentin % Band Intensity ([6]; Digitoxin 10 nM): 0%,
E-Cadherin % Band Intensity ([6]; Digitoxin 25 nM): 0%,
SNAI1 % Band Intensity ([6]; Digitoxin 25 nM): 0%,
Vimentin % Band Intensity ([6]; Digitoxin 25 nM): 0%,
Constitutive phosphorylation of IkBalpha and NFkB, p65 [7]: significantly suppressed
Phosphorylation of IKKalpha [7]: modestly suppressed
activity at 0.01 µM ([8]; read-out: ICAM1 secretion, % of Control): 19%
activity at 0.03 µM ([8]; read-out: ICAM1 secretion, % of control): 30%
activity at 0.01 µM ([8]; read-out: IFN-gamma secretion, % of Control): 100%
activity at 0.03 µM ([8]; read-out: IFN-gamma secretion, % of control): 35%
activity at 0.01 µM ([8]; read-out: IL-1-beta secretion, % of Control): 50%
activity at 0.03 µM ([8]; read-out: IL-1-beta secretion, % of control): 50%
activity at 0.01 µM ([8]; read-out: IL-6 secretion, % of Control): 3%
activity at 0.03 µM ([8]; read-out: IL-6 secretion, % of control): 0%
activity at 0.01 µM ([8]; read-out: IL-8 secretion, % of Control): 2%
activity at 0.03 µM ([8]; read-out: IL-8 secretion, % of control): 0%
activity at 0.01 µM ([8]; read-out: IP-10 secretion, % of Control): 100%
activity at 0.03 µM ([8]; read-out: IP-10 secretion, % of control): 100%
activity at 0.01 µM ([8]; read-out: TNFalpha secretion, % of Control): 5%
activity at 0.03 µM ([8]; read-out: TNFalpha secretion, % of control): 0%
Clinical outcome of one cancer patient [9]: positive result
Diameter of metastatic foci, mm, (median) (PAIII cancer cells): 1.76 mm
Number of pleural metastatic foci (median) (PAIII cancer cells): 122
FOXP3 mRNA % change [10]: −30%
Hepatocyte Growth Factor mRNA % change [10]: −50%
Igf2r mRNA % change [10]: −40%
Vimentin mRNA % change [10]: −10%
Zeb2 mRNA % change [10]: −30%
Threshold concentration for an increase in cell death [11]: 70 to 100 nM
miR467b DDCt, Digitoxin - Vehicle [12]: 20.10
miR-122 DDCt, Digitoxin - Vehicle [12]: 11.005
miR-291a-3p DDCt, Digitoxin - Vehicle [12]: 19.13
miR-347 DDCt, Digitoxin - Vehicle [12]: 4.34
miR-376a DDCt, Digitoxin - Vehicle [12]: −32.75(↑)
miR-380-3p DDCt, Digitoxin - Vehicle [12]: 16.57
miR-411 DDCt, Digitoxin - Vehicle [12]: 4.61
miR-667 DDCt, Digitoxin - Vehicle [12]: 7.01
miR-670 DDCt, Digitoxin - Vehicle [12]: −12.11(↑)
miR-879 DDCt, Digitoxin - Vehicle [12]: 11.31
IC50 [1, 20]: 0.9 nmol/L
IC50 [1, 21]: ~0.9 nmol/L
RM values (lipophilicity, reversed-phase thin layer chromatography) [2]: 1.37
P (partition coefficient in octanol/water system) [3]: 670 and 680
P (partition coefficient in octanol/water system) ([3]; listed as Digitoxin): 670.0 ± 105.0
IC50 [13]: ~200 nM
Diameter of metastasis, mm (median) [14]: 0.87 mm
Number of Pleural Metastases (median) [14]: 16
Weight of Primary Tumor, gm (median) [14]: 19.6 gm
Human toxicity limit [15]: 3036 nmol
Human toxicity limit, Nmol/L = nM [15]: 45.4 nM
Human toxicity limit ([15]; ouabain value is lethal dose): >2.5 mg
Serum Interleukin-6 (IL-6) ([16]; control 47.9 ± 14.1): 37.0 ± 16.9 pg/mL
Serum CINC1/KC (rat IL-8 equivalent) ([16]; control 60.32 ± 20.6): 47.9 ± 14.4 pg/mL
K retentions for reversed-phase high pressure liquid chromatography [4]: 3.34
ID50 [5]: 0.31 ± 0.03 ×10^−4 mol l^−1
GRO/KC in lung [17]: significant reductions
IFNγ in lung [17]: significant reductions
IL-13 in lung [17]: No significant changes
MCP-1 in lung [17]: significant reductions
MIP-2 in lung [17]: significant reductions
TGFβ in lung [17]: No significant changes
TNFa in lung [17]: significant reductions
Incidence of CIA (mice that developed symptoms) [18]: 50%
Inflammatory focus (pannus-like) in metatarsal-phalangeal joints, histopathology [18]: absent
Mean paw thickness [18]: decreased
Severity of CIA (mean visual score) [18]: significant reduction

C[C@]12CC[C@H](O)C[C@H]1CC[C@@H]1[C@@H]2C[C@@H](O)[C@]2(C)[C@@H](C3=CC(=O)OC3)CC[C@]12O [digoxigenin]
IC50 [1, 20]: 34 nmol/L
P (partition coefficient in octanol/water system) [3]: 13.5 ± 2.3

C[C@H]1O[C@@H](O[C@H]2[C@@H](O)C[C@H](O[C@H]3[C@@H](O)C[C@H](O[C@H]4CC[C@@]5(C)[C@H](CC[C@@H]6[C@@H]5C[C@@H](O)[C@]5(C)[C@@H](C7=CC(=O)OC7)CC[C@]65O)C4)O[C@@H]3C)O[C@@H]2C)C[C@H](O)[C@@H]1O [digoxin]
IC50 [19]: ~210 nM
IC50 [1, 20]: 27 nmol/L
IC50 [1, 21]: ~27 nmol/L
RM values (lipophilicity, reversed-phase thin layer chromatography) [2]: 0.25
Human toxicity limit [15]: 1900 nmol
Human toxicity limit, Nmol/L = nM [15]: 27.1 nM
K retentions for reversed-phase high pressure liquid chromatography [4]: 0.50
ID50 [5]: 0.90 ± 0.07 ×10^−4 mol l^−1

CO[C@H]1C[C@H](O[C@H]2CC[C@@]3(C)[C@H](CC[C@@H]4[C@@H]3CC[C@]3(C)[C@@H](C5=CC(=O)OC5)[C@@H](OC(C)=O)C[C@]43O)C2)O[C@@H](C)[C@@H]1O [oleandrin]
Threshold concentration for an increase in cell death [11]: ca. 30 nM
IC50 [1, 20]: 2 nmol/L
IC50 [1, 21]: ~2 nmol/L
IC50 [13]: ~100 nM

C[C@@H]1O[C@@H](O[C@H]2C[C@@H](O)[C@]3(CO)[C@H]4[C@H](O)C[C@]5(C)[C@@H](C6=CC(=O)OC6)CC[C@]5(O)[C@@H]4CC[C@]3(O)C2)[C@H](O)[C@H](O)[C@H]1O [ouabain]
IC50 [19]: 240 nM and 357 nM and ~240 nM and ~357 nM
Threshold concentration for an increase in cell death [11]: ca. 50 nM
IC50 [1, 20]: 8 nmol/L
RM values (lipophilicity, reversed-phase thin layer chromatography) [2]: −0.73
P (partition coefficient in octanol/water system) [3]: 0.02 and 0.02 ± 0.00
IC50 [13]: ~200 nM
Human toxicity limit [15]: 1683 nmol
K retentions for reversed-phase high pressure liquid chromatography [4]: 0.14
ID50 [5]: 2.28 ± 0.10 ×10^−4 mol l^−1

Reference: patent US20140187505A1, “Cardiac Glycosides to Treat Cystic Fibrosis and Other IL-8 Dependent Disorders” (priority 2002, published 2014)
